Experimental data taken from ChEMBL document CHEMBL3856204, “Chiral 6-aryl-furo[2,3-d]pyrimidin-4-amines as EGFR inhibitors” (Eur J Med Chem, 2016).

target: Epidermal growth factor receptor (Homo sapiens, UniProt P00533); assay: Inhibition of recombinant human GST-tagged EGFR cytoplasmic domain (668 to 1210 residues) expressed in baculovirus by Z'-LYTE assay
Sequence (P00533 whole entry, the tested form may be a part): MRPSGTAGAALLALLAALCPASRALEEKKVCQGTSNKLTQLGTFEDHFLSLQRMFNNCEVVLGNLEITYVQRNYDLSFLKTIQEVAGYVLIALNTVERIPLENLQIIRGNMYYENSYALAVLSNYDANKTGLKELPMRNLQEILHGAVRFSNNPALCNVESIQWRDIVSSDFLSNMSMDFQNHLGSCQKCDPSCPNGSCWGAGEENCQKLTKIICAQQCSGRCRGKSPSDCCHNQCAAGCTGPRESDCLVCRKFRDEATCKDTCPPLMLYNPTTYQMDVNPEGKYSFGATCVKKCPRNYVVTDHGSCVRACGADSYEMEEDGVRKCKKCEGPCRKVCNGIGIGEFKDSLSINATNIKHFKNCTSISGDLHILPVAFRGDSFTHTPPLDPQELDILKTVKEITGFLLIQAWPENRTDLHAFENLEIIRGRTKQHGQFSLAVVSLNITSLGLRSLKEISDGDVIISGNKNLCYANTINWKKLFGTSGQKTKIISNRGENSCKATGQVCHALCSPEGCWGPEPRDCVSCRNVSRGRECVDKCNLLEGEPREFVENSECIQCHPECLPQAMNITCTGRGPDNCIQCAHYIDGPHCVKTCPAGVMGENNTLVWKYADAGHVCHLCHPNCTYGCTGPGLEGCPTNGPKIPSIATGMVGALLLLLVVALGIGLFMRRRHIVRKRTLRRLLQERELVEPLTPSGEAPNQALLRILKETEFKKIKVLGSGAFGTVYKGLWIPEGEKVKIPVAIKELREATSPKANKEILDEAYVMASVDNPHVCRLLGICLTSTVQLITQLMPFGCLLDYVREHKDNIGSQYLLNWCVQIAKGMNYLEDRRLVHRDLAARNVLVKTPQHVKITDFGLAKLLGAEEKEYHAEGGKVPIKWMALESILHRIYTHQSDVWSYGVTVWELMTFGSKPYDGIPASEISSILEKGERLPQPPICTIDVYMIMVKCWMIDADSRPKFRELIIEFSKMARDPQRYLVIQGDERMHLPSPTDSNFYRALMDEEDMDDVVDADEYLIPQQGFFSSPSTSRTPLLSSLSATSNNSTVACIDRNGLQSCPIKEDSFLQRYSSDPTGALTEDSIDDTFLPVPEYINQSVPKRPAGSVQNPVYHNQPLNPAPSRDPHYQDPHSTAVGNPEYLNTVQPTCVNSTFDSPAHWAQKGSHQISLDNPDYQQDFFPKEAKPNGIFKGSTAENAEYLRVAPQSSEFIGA

Q: `C[C@@H](Nc1ncnc2oc(-c3ccccc3)cc12)c1ccccc1` was tested. Which IC50 did it give?
A: 11 nM

Q: For `COc1ccc(-c2cc3c(N[C@H](C)c4ccc(F)cc4)ncnc3o2)cc1`, which IC50 is on record?
A: 27 nM

Q: Which IC50 does the source give for `COc1ccc(-c2cc3c(N[C@H](CCO)c4ccccc4)ncnc3o2)cc1` here?
A: 4 nM

Q: With `COc1ccc(-c2cc3c(NCc4ccccc4)ncnc3o2)cc1` as the compound, how does the IC50 read?
A: 74 nM

Q: For `COc1cccc(-c2cc3c(N[C@H](C)c4ccccc4)ncnc3o2)c1`, which IC50 is on record?
A: 7 nM

Q: How did the IC50 turn out when `COc1ccc(-c2cc3c(N[C@H](C)c4cccc(F)c4)ncnc3o2)cc1` was run?
A: 24 nM

Q: How did the IC50 turn out when `c1ccc(CNc2ncnc3oc(-c4ccccc4)cc23)cc1` was run?
A: 93 nM

Q: `C[C@@H](Nc1ncnc2oc(-c3ccc(Br)cc3)cc12)c1ccccc1` was tested. Which IC50 did it give?
A: 56 nM

Q: For `C[C@@H](Nc1ncnc2oc(-c3ccc(O)cc3)cc12)c1ccccc1`, which IC50 is on record?
A: 1.5 nM

Q: For `COc1ccc(-c2cc3c(N[C@H](C)c4ccccc4)ncnc3o2)cc1`, which IC50 is on record?
A: 5.3 nM

Q: `COc1ccccc1-c1cc2c(N[C@H](C)c3ccccc3)ncnc2o1` was tested. Which IC50 did it give?
A: 4 nM

Q: For `COc1ccc(-c2cc3c(NC(CC(N)=O)c4ccccc4)ncnc3o2)cc1` (racemic), which IC50 is on record?
A: 22 nM

Q: With `COc1ccc(-c2cc3c(N[C@H](C)c4ccccc4F)ncnc3o2)cc1` as the compound, how does the IC50 read?
A: 24 nM

Q: With `C[C@@H](Nc1ncnc2oc(-c3cccc(O)c3)cc12)c1ccccc1` as the compound, how does the IC50 read?
A: 4.6 nM

Q: With `C[C@@H](Nc1ncnc2oc(-c3ccc(C#N)cc3)cc12)c1ccccc1` as the compound, how does the IC50 read?
A: 44 nM

Q: How did the IC50 turn out when `COc1ccc(-c2cc3c(N[C@H](C)C4CCCCC4)ncnc3o2)cc1` was run?
A: > 100 nM

Q: Which IC50 does the source give for `C[C@@H](Nc1ncnc2oc(-c3ccc(NCCN4CCOCC4)cc3)cc12)c1ccccc1` here?
A: 1.1 nM

Q: For `COc1ccc(-c2cc3c(N[C@@H](C)c4ccccc4)ncnc3o2)cc1`, which IC50 is on record?
A: > 1000 nM

Q: Which IC50 does the source give for `C[C@@H](Nc1ncnc2oc(-c3ccc(F)cc3)cc12)c1ccccc1` here?
A: 13 nM

Q: With `CC[C@@H](Nc1ncnc2oc(-c3ccc(OC)cc3)cc12)c1ccccc1` as the compound, how does the IC50 read?
A: 22 nM

Q: How did the IC50 turn out when `C=Cc1ccc(-c2cc3c(N[C@H](C)c4ccccc4)ncnc3o2)cc1` was run?
A: 29 nM

Q: With `COc1ccc(-c2cc3c(N[C@@H](C)CO)ncnc3o2)cc1` as the compound, how does the IC50 read?
A: > 100 nM

Q: With `COC[C@@H](Nc1ncnc2oc(-c3ccccc3)cc12)c1ccccc1` as the compound, how does the IC50 read?
A: 28 nM
